Assay results published in ChEMBL document CHEMBL3588818 (Eur J Med Chem, 2015).

Assays:
[1] = biological target: Sigma non-opioid intracellular receptor 1 (Rattus norvegicus, UniProt Q9R0C9); test: Displacement of […] from sigma1 receptor in Sprague-Dawley rat cortical membranes incubated for 2 hrs by liquid scintillation counting based competitive radioligand binding assay; conditions: read-out: Ki(app)
PC-12 [2] = test: Selectivity index, ratio of Ki for sigma2 receptor in Sprague-Dawley rat liver membranes to Ki for rat VAChT expressed in PC12 cell membranes; format: cell-based
[3] = biological target: T1, Vesicular acetylcholine transporter (Rattus norvegicus, UniProt Q62666); test: Displacement of (-)-[3H]vesamicol from rat VAChT expressed in PC12 cell membranes incubated for 2 hrs by liquid scintillation counting based competitive radioligand binding assay; parameters: species or system PC-12; conditions: read-out: Ki(app)
T1 sequence (Q62666 whole entry): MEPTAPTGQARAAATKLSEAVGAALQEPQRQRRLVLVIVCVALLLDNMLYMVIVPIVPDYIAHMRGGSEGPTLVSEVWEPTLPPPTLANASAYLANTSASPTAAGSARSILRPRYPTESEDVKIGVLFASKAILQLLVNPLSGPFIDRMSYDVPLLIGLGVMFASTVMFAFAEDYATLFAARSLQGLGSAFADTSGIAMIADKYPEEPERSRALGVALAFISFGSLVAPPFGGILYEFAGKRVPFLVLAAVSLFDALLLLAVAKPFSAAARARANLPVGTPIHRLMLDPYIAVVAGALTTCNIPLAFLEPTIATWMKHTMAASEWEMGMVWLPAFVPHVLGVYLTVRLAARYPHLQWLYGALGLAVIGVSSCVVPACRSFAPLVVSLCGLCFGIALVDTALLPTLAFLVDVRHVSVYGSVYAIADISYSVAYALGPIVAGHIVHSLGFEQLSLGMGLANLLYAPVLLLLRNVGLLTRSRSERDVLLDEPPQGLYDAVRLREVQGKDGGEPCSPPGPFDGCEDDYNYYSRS

[4] = Displacement of [3H]DTG from sigma2 receptor in Sprague-Dawley rat liver membranes incubated for 2 hrs in presence of dextrallorphan by liquid scintillation counting based competitive radioligand binding assay; conditions: read-out: Ki(app)
PC-12 [5] = test: Selectivity index, ratio of Ki for sigma1 receptor in Sprague-Dawley rat cortical membranes to Ki for rat VAChT expressed in PC12 cell membranes; format: cell-based

Chain of Sigma non-opioid intracellular receptor 1 (Q9R0C9 whole entry): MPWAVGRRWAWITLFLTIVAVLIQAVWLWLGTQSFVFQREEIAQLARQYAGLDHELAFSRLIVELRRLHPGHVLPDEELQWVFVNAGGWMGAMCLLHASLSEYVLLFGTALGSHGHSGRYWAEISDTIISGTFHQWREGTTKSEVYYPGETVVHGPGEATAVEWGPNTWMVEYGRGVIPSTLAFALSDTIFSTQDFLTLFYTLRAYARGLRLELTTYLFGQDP

SMILES	Ki [1] [nM]	Ratio Ki (PC-12 [2])	Ki [3] [nM]	Ki [4] [nM]	Ratio Ki (PC-12 [5])
O[C@@H]1CC[C@@H](OCc2ccc(F)cc2)C[C@H]1N1CCC(c2ccncc2)CC1 (racemic)	26.4	< 0.1	1350	85.8	< 0.1
O[C@@H]1C[C@@H](OCc2ccc(F)cc2)CC[C@H]1N1CCC(c2ccccc2)CC1 (racemic)	16.8	< 0.1	2390	67.1	< 0.1
O[C@@H]1C[C@@H](OCc2ccc(F)cc2)CC[C@H]1N1CCN(c2ccccc2)CC1 (racemic)	189	0.2	6190	1040	< 0.1
O[C@@H]1C[C@@H](OCc2ccc(F)cc2)CC[C@H]1N1CC=C(c2ccccc2)CC1 (racemic)	15.9	< 0.1	2830	55.5	< 0.1
CCN(CCCc1ccccc1)[C@@H]1CC[C@H](OCc2ccc(F)cc2)C[C@H]1O (racemic)	19.7	0.1	1930	280	< 0.1
O[C@@H]1C[C@@H](OCc2ccc(F)cc2)CC[C@H]1N1CCC(O)(c2ccccc2)CC1 (racemic)	31		> 10000	254	
CC(=O)C1(c2ccccc2)CCN([C@@H]2CC[C@H](OCc3ccc(F)cc3)C[C@H]2O)CC1 (racemic)	120		> 10000	103	
O[C@@H]1C[C@@H](OCc2ccc(F)cc2)CC[C@H]1N1CCC(c2ccccc2)(c2ccccc2)CC1 (racemic)	736	2	2730	5540	0.3
O[C@@H]1C[C@@H](OCc2ccc(F)cc2)CC[C@H]1N1CCC(Cc2ccccc2)CC1 (racemic)	9.2	0.2	1300	207	< 0.1
O[C@@H]1C[C@@H](OCc2ccc(F)cc2)CC[C@H]1N1CCc2ccccc2C1 (racemic)	23.1		> 10000	45.6	
O[C@@H]1C[C@@H](OCc2ccc(F)cc2)CC[C@H]1N1CCC(N2CCCCC2)CC1 (racemic)	300		> 10000	374	
O=C(c1ccc(F)cc1)C1CCN([C@@H]2CC[C@H](OCc3ccc(F)cc3)C[C@H]2O)CC1 (racemic)	65.4	0.3	5840	2000	< 0.1
O[C@@H]1C[C@@H](OCc2ccc(F)cc2)CC[C@H]1N1CCC(c2ccncc2)CC1 (racemic)	41.1		> 10000	164	
O[C@@H]1CC[C@@H](OCCCF)C[C@H]1N1CCC(c2ccccc2)CC1 (racemic)	25.9	1.8	47.8	88.2	0.5
O[C@@H]1C[C@@H](OCCCF)CC[C@H]1N1CCC(c2ccccc2)CC1 (racemic)	97.6	12	59.6	717	1.6
O[C@@H]1Cc2ccccc2C[C@H]1N1CCN(c2ccccc2)CC1 (racemic)	466	22.7	56	1280	8.3
O[C@@H]1Cc2ccccc2C[C@H]1N1CC=C(c2ccccc2)CC1 (racemic)	24			166	
O[C@@H]1Cc2ccccc2C[C@H]1N1CCC(O)(c2ccccc2)CC1 (racemic)	67	47.7	11.5	549	5.8
O[C@@H]1Cc2ccccc2C[C@H]1N1CCC(Cc2ccccc2)CC1 (racemic)	65	2.6	23.2	60	2.8

SMILES	Ki [1] [nM]	Ratio Ki (PC-12 [2])	Ki [3] [nM]	Ki [4] [nM]	Ratio Ki (PC-12 [5])
O[C@@H]1Cc2ccccc2C[C@H]1N1CCC(N2CCCCC2)CC1 (racemic)	248	1.4	112	161	2.2
O[C@@H]1Cc2ccccc2C[C@H]1N1CCC(c2ccncc2)CC1 (racemic)	8.9	13.4	19.3	258	0.5
Nc1cccc2c1C[C@@H](O)[C@H](N1CCC(c3ccccc3)CC1)C2 (racemic)	55.3	2.1	339	726	0.2
O=C(Nc1cccc2c1C[C@@H](O)[C@H](N1CCC(Cc3ccccc3)CC1)C2)c1ccc(F)cc1 (racemic)	296		> 10000	2110	
O[C@@H]1CCCC[C@H]1N1CCc2ccccc2C1 (racemic)	54.3			809	
O[C@@H]1CCCC[C@H]1N1CCC(N2CCCCC2)CC1 (racemic)	> 1000		5110	4710	
O[C@@H]1CCCC[C@H]1N1CCC(c2ccncc2)CC1 (racemic)	> 1000		3380	3320	
CCN(CCCc1ccccc1)[C@@H]1C[C@H](OCc2ccc(F)cc2)CC[C@H]1O (racemic)	10.5	< 0.1	1610	109	
O[C@@H]1CC[C@@H](OCc2ccc(F)cc2)C[C@H]1N1CCC(O)(c2ccccc2)CC1 (racemic)	47.3	0.4	316	134	0.2
CC(=O)C1(c2ccccc2)CCN([C@@H]2C[C@H](OCc3ccc(F)cc3)CC[C@H]2O)CC1 (racemic)	63.1	< 0.1	260	18.8	0.2
O[C@@H]1CC[C@@H](OCc2ccc(F)cc2)C[C@H]1N1CCC(c2ccccc2)(c2ccccc2)CC1 (racemic)	456	3.9	603	2360	0.8
O[C@@H]1CC[C@@H](OCc2ccc(F)cc2)C[C@H]1N1CCC(Cc2ccccc2)CC1 (racemic)	25.2	0.6	110	61.8	0.2
O[C@@H]1CC[C@@H](OCc2ccc(F)cc2)C[C@H]1N1CCc2ccccc2C1 (racemic)	59	< 0.1	4670	45.9	< 0.1
O[C@@H]1CC[C@@H](OCc2ccc(F)cc2)C[C@H]1N1CCC(N2CCCCC2)CC1 (racemic)	553	0.1	4790	543	0.1
O=C(c1ccc(F)cc1)C1CCN([C@@H]2C[C@H](OCc3ccc(F)cc3)CC[C@H]2O)CC1 (racemic)	59.4	0.6	1030	640	< 0.1
CCN(CCCc1ccccc1)[C@@H]1CCCC[C@H]1O (racemic)	115		> 10000	652	
O[C@@H]1Cc2cccc(OCCF)c2C[C@H]1N1CCC(c2ccccc2)CC1 (racemic)					10.7
O[C@@H]1Cc2ccccc2C[C@H]1N1CCC(c2ccccc2)CC1 (racemic) [BENZOVESAMICOL]	26.1			96.4	
O[C@@H]1CCCC[C@H]1N1CCC(c2ccccc2)CC1 (racemic) [VESAMICOL]				112	
